Assay results as given in US20100120747A1, “COMBINATION OF A CHOL[…] AND A COMPOUND WITH 5-HT6 RECEPTOR AFFINITY” (priority 2006, published 2010).
Where a name gives a salt, the structure may show the parent alone.

Test system: adult male Lister hooded rats
Assay: Novel object discrimination (NOD) test, 4 h inter-trial interval
Type: in vivo, rat
Details: FIG. 1; for effect in the NOD test: 4 h ITI, each amount given by itself or both amounts combined
Description: II) Behavioural Assessment of Cognitive Effects of Compounds with 5-HT6 Receptor Affinity: Novel Object Discrimination (NOD)
Two separate groups of 12 adult male Lister hooded rats are tested in the NOD paradigm using 4 h inter-trial interval (ITI) delay between the familiarisation and choice trials which should ensure impaired discrimination and permit the pro-cognitive effects of the compounds to be evaluated.
In two separate groups of animals compound [1140] (6-chloro-N-(3-(2-(dimethylamino)ethyl)-1H-indol-5-yl)imidazo[2,1-b]thiazole-5-sulfonamide) and donepezil HCl (or vehicle) were administered on four separate occasions, at seven day intervals. The semi-randomised design for drug administration ensures that for each group, each animal receives one of the four treatment combinations once during the study: compound [1140] and donepezil HCl, compound [1140] and vehicle, donepezil HCl and vehicle, vehicle and vehicle. […] Drug pre-treatment occurred 20 min prior to the first NOD trial to ensure optimal drug plasma levels during acquisition and consolidation phases.
To maximise the opportunity to see a synergistic effect, the animals received one dose of donepezil HCl i.p. (0.05 mg/kg for group 1 and 0.1 mg/kg for group 2) in combination with the selected dose of compound [1140] (1 mg/kg) or the vehicle (saline containing 0.5 methylcellulose, 2 ml/kg).
The exact experimental protocol is outlined in detail in:
M. V. King et al, 5-HT6 receptor antagonist reverse delay-dependent deficits in novel object discrimination by enhancing consolidation—an effect sensitive to NMDA receptor antagonism, Neuropharmacology 2004, 47, 195-204 and Woolley et al. Reversal of cholinergic-induced deficit in a rodent model of recognition memory by the selective 5-HT6 receptor antagonist, Ro 04-6790; Psychopharmacology 2003, 170, 358-367.
The behavioural assessment of cognitive effects of compounds with 5-HT6 receptor affinity with the novel object discrimination (NOD) test was carried out as described above.
The results are depicted in FIG. 1. […]

| Structure (SMILES) | effect in the NOD test | potentiation of the action of compound [1140] in the NOD test (donepezil given with compound [1140]) |
| --- | --- | --- |
| CN(C)CCc1c[nH]c2ccc(NS(=O)(=O)c3c(Cl)nc4sccn34)cc12 [compound [1140], 6-chloro-N-(3-(2-(dimethylamino)ethyl)-1H-indol-5-yl)imidazo[2,1-b]thiazole-5-sulfonamide] | does not have any effect |  |
| COc1cc2c(cc1OC)C(=O)C(CC1CCN(Cc3ccccc3)CC1)C2 (stereo not drawn) [donepezil hydrochloride] | does not have any effect | potentiates the action |
